Measurements from patent US5486541A (Teva Pharmaceutical Industries, Ltd., priority 1991, dated 1996).

Assays:
[1] = tested on: MAO-B; experiment: Inhibition of MAO Activity Ex-vivo: Acute Treatment, brain, MAO-B; type: in vivo, rat (male Sprague-Dawley derived); settings: for ED-50 BRAIN MAO-B: rat, ip or po, 2 hours after dosing; for BRAIN MAO-A/MAO-B (measure of selectivity): ratio of ED-50 values, rat brain, ex vivo
[2] = biological target: T1, MAO-B (Rattus norvegicus, UniProt P19643); experiment: biochemical; type: biochemical; settings: rat brain homogenate; for IC50: 20 min preincubation at 37° C., PEA 20 μM, read-out: IC50 for Inhibition of MAO-B in Brain Homogenates; for Selectivity MAO-A/MAO-B (in vitro IC50): ratio IC50 MAO-A / IC50 MAO-B
T1 sequence (P19643 1-520): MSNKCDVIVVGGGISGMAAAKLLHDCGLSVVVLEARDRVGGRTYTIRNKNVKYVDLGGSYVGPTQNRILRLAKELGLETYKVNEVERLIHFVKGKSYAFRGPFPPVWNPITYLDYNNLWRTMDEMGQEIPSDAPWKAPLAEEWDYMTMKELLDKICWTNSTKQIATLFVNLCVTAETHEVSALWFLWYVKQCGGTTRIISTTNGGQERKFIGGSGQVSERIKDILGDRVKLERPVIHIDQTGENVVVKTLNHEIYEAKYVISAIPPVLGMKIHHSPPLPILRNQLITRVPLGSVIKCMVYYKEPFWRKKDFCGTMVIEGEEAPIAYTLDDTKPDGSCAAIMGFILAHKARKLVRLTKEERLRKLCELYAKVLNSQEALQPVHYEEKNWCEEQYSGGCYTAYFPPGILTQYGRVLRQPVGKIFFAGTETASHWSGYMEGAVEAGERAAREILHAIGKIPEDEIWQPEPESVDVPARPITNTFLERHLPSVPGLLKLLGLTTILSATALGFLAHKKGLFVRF

[3] = biological target: T2, MAO-A (Rattus norvegicus, UniProt P21396); experiment: biochemical; settings: rat brain homogenate; 20 min preincubation at 37° C.; 5-HT 1 mM; read-out: IC50 for Inhibition of MAO-A in Brain Homogenates
T2 sequence (P21396 1-526): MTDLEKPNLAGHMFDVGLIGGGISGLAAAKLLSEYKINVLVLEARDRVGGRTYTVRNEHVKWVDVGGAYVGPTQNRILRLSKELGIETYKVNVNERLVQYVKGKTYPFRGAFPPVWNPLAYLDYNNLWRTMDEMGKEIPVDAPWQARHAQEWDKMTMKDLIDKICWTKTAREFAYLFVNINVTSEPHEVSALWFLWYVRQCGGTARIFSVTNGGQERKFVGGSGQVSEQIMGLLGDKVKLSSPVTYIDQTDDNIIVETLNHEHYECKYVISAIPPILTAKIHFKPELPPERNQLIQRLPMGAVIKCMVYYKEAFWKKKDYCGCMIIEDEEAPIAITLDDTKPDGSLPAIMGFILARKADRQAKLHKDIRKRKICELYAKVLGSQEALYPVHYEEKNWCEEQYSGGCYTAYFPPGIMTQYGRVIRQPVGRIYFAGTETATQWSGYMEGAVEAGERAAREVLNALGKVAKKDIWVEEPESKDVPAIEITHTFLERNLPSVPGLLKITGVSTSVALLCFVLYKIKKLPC

[4] = tested on: MAO-A; experiment: Inhibition of MAO Activity Ex-vivo: Acute Treatment, brain, MAO-A; type: in vivo, rat (male Sprague-Dawley derived); settings: rat, ip or po, 2 hours after dosing
[5] = tested on: blood pressure response to tyramine; experiment: Tyramine Potentiation in Vivo (blood pressure response to tyramine); design: species or system rat; settings: for Potentiation of blood pressure response to tyramine: compound 5 mg/kg orally, tyramine 20 mg/kg orally, ratio of areas under the curve of blood pressure
Procedure: On the previous day a tail artery cannulation was performed to enable direct blood pressure measurements. On the experimental day the cannulae were connected to pressure transducers. The animals were unrestrained and were kept in a glass sided open top tank during the pressure measurements. […] The desired compound was administered 30 minutes after the last dose of tyramine. Tyramine was administered again, in increasing doses, as described above, one hour after the desired compound was administered. […] The tyramine potentiating effect was calculated as a ratio between the areas under the curve of blood pressure measured with tyramine alone (20 mg/kg) and that measured after administration of the desired compounds and tyramine.

[6] = tested on: MAO-B; experiment: Inhibition of MAO Activity Ex-vivo: Acute Treatment, liver, MAO-B; type: in vivo, rat (male Sprague-Dawley derived); settings: for ED-50 LIVER MAO-B: rat, ip or po, 2 hours after dosing; for LIVER MAO-A/MAO-B (measure of selectivity): ratio of ED-50 values, rat liver, ex vivo
Procedure: (§1) These experiments were performed essentially according to the protocol of K. F. Tipton and M. B. H. Youdim in CIBA Symposium No. 39, Editors: G. E. W. Wolstenholme and J. Knight, Elsevier, Amsterdam, 1976, pp. 393-403. The MAO enzyme source was a homogenate of rat brain in 0.3M sucrose which was centrifuged at 600 g for 15 minutes. The supernatant was diluted appropriately in 0.05M phosphate buffer and preincubated with serial dilutions of compounds of interest which are listed below for 20 minutes at 37° C. ^14 C-labeled substrates (2-phenylethylamine, hereinafter PEA; 5-hydroxytryptamine, hereinafter 5-HT) were then added and the incubation continued for a further 20 minutes (PEA) or 30-45 minutes (5-HT). Substrate concentrations used were 20 μM (PEA) or 1 mM (5-HT). In the case of PEA the enzyme concentration was chosen so that not more than 10% of the substrate was metabolized during the course of the reaction. The reaction was then stopped by the addition of tranylcypromine (to final concentration of 1 mM) and the incubate filtered over a small column of Amberlite CG-50; buffered to pH 6.3. The column was washed with 1.5 ml water, the eluates pooled and the radioactive content determined by liquid scintillation spectrometry. Since the amine substrates are totally retained on the column, radioactivity in the eluate indicates the production of neutral and acidic metabolites formed as a result of MAO activity. Activity of MAO in the sample was expressed as a percentage of control activity in the absence of inhibitors after subtraction of appropriate blank values. The activity determined using PEA as a substrate is referred to as MAO B activity, and that determined using 5-HT as a substrate is referred to as MAO A activity.
(§2) Rats (male Sprague-Dawley derived) weighing 250±20 g were treated with the desired compound by intraperitoneal injection (ip) or oral gavage (po) and decapitated 2 hours later. Groups of three rats were used for each dose level of the compound and MAO activity was determined in the brain and liver using the general technique described above. The amount of protein in each incubation was determined using the Folin-Lowry method, and enzyme activity was calculated as nmol substrate metabolized per hour incubation for each mg protein. Activity of MAO in tissues from animals treated with inhibitors was expressed as a percentage of the enzyme activity in a group of control animals which were administered the vehicle alone (water in the case of oral gavage, or 0.9% saline in the case of intraperitoneal injection) and killed as above.

[7] = tested on: MAO-A; experiment: Inhibition of MAO Activity Ex-vivo: Acute Treatment, liver, MAO-A; type: in vivo, rat (male Sprague-Dawley derived); settings: rat, ip or po, 2 hours after dosing
Procedure: as §1, §2

Row | SMILES | ED-50 BRAIN MAO-B [1] [mg/kg] | BRAIN MAO-A/MAO-B (measure of selectivity) [1] | IC50 [2] [nM] | Selectivity MAO-A/MAO-B (in vitro IC50) [2] | IC50 [3] [nM] | ED-50 BRAIN MAO-A [4] [mg/kg] | Potentiation of blood pressure response to tyramine [5] [fold] | ED-50 LIVER MAO-B [6] [mg/kg] | LIVER MAO-A/MAO-B (measure of selectivity) [6] | ED-50 LIVER MAO-A [7] [mg/kg] | ED-50 BRAIN MAO-B ([1]; hydrochloride, 120 min) [mg/kg] | BRAIN MAO-A/MAO-B (measure of selectivity) ([1]; hydrochloride) | Selectivity MAO-A/MAO-B (in vitro IC50) ([2]; hydrochloride) | ED-50 LIVER MAO-B ([6]; hydrochloride, 120 min) [mg/kg] | ED-50 BRAIN MAO-A ([4]; hydrochloride, 120 min) [mg/kg] | effect of tyramine alone on blood pressure (in words) ([5]; tyramine alone, oral, 5, 10 and 20 mg/kg)
1 | C#CCNC1CCc2c(F)cc(F)cc21 (single isomer, unassigned; (+)) [(+)-4,6-Difluoro] | 3.7 | 1 | 500 | 2 | 800 | 2.9 |  |  |  |  |  |  |  |  |  | 
2 | C#CCNC1CCc2c(F)cccc21.Cl (single isomer, unassigned; (+)) [(+)-4-F, (+)-4-Fluoro-N-propargyl-1-aminoindan hydrochloride] | 0.33 | > 3 | 5.2 | 65 | 340 | > 1.0 | 1.55 | 0.17 | > 5.9 | > 1.0 |  |  |  |  |  | 
3 | C#CCNC1CCc2cc(F)ccc21.Cl (single isomer, unassigned; (+)) [(+)-5-F, (+)-5-Fluoro-N-propargyl-1-aminoindan hydrochloride] | 0.07 | > 1.4 | 5.7 | 24 | 140 | > 0.1 | 2.25 | 0.07 | > 1.4 | > 0.1 |  |  |  |  |  | 
4 | C#CCNC1CCc2ccc(F)cc21.Cl (single isomer, unassigned; (-)) [(-)-6-F, (-)-6-Fluoro-N-propargyl-1-aminoindan hydrochloride] |  |  | 12000 |  | 40000 |  |  |  |  |  | 0.45 | 51 | 3 | < 0.5 | 23 | 
5 | C#CCNC1CCc2c(F)cccc21.Cl (centres unmarked) [Example 4-F, 4-Fluoro-N-propargyl-1-aminoindan hydrochloride] | 0.22 | 6 | 5.8 | 86 | 500 | 1.4 |  | 0.13 | 18.5 | 2.4 |  |  |  |  |  | 
6 | C#CCNC1CCc2cc(F)ccc21.Cl (centres unmarked) [Example 5-F, 5-Fluoro-N-propargyl-1-aminoindan hydrochloride] | 0.4 | 6 | 6 | 116 | 700 | 2.3 |  | 0.06 | 36.7 | 2.2 |  |  |  |  |  | 
7 | C#CCNC1CCc2ccc(Cl)cc21.Cl (centres unmarked) [Example 6-Cl, 6-Chloro-N-propargyl-1-aminoindan hydrochloride] | 1.7 | 5.8 | 7.7 | 896 | 6900 | 10 |  |  |  |  |  |  |  |  |  | 
8 | C#CCNC1CCc2ccc(F)cc21 (centres unmarked) [Example 6-F, 6-Fluoro-1-propargylaminoindan] | 0.13 | 170 | 6.2 | 645 | 4000 | 22 |  |  |  |  |  |  |  |  |  | 
9 | C#CCNC1CCc2ccccc21 (centres unmarked) [H, N-propargyl-1-aminoindan, reference compound] | 0.07 |  |  |  |  | 1.2 |  | 0.06 |  | 5 |  |  |  |  |  | 
10 | NCCc1ccc(O)cc1 [Tyramine, reference compound] |  |  |  |  |  |  |  |  |  |  |  |  |  |  |  | caused increase of blood pressure
